In patent US7718614B2 (Kurume University, priority 2003, dated 2010):
Where “and” joins values, the source holds several entries; their conditions need not be identical. Equal values may be shown once. Entries after “also recorded” stand apart in the source; their conditions may differ.

Tests used:
[1] = system: peptide-specific CTL precursors in PBMCs; experiment: Peptide-specific CTL precursor assay (IFN-γ production), Example 2; format: cell-based, human; settings: for Cellular response to peptide, 6th (mean specific IFN-γ production): post(6th)-vaccination PBMCs of the individual patient, * p ≦ 0.05, ** p ≦ 0.10 increased versus pre; for Cellular response to peptide, Pre (mean specific IFN-γ production): pre-vaccination PBMCs of the individual patient, response to HIV peptide subtracted
Method: Before the first vaccination and 7 days after every 6th vaccination, 30 ml of peripheral blood was obtained, and PBMCs were isolated by means of Ficoll-Conray density gradient centrifugation. Peptide-specific CTL precursors in PBMCs were detected using a previously reported culture method [24]. Briefly, PBMCs (1×10^5 cells/well) were incubated with 10 μM of each peptide in U-bottom-type 96-well microculture plates (Nunc, Roskilde, Denmark) in 200 μl of culture medium. The culture medium contained 45% RPMI-1640 medium, 45% AIM-V™ medium (Invitrogen Corp., Carlsbad, Calif.), 10% FCS, 100 U/ml of interleukin-2 (IL-2) and 0.1 mM MEM nonessential amino acid solution (Invitrogen Corp.). Half of the medium was removed and replaced with the new medium containing a corresponding peptide (20 μM) every 3 days for up to 12 days. […] The target cells (C1R-A2402 or T2, 1×10^4/well) were pulsed with each peptide (10 μM) for 2 hr, and then effector cells (1×10^5/well) were added to each well with the final volume of 200 μl. After incubation for 18 hr, the supernatants (100 μl) were collected, and the amounts of IFN-γ were measured using an enzyme-linked immuno-sorbent assay (ELISA) (limit of sensitivity: 10 pg/ml). All experiments were performed in the four different wells with duplicate assays.
All patients were vaccinated with up to 4 peptides selected from the 16 candidates by pre-vaccination measurements.

[2] = system: peptide-specific IgG; experiment: ELISA of serum anti-peptide IgG, Example 2; format: in vivo, human; parameters: key: −: absent; +: present, low titer; ++: present, high titer; settings: serum of the individual patient; for Anti-peptide IgG, 6th: after 6th vaccination; for Anti-peptide IgG, Pre: pre-vaccination
Method: Peptide-specific CTL precursors in PBMCs were detected using a previously reported culture method, while an ELISA was used to detect the serum IgG levels specific for the peptides administrated, as reported previously. In addition, a new monitoring method was conducted to carefully measure the estramustine-induced immunosuppression. Namely, PBMCs were harvested every 2 weeks and were cultured (10^4 cells/well) for 2 days in triplicate assays with […] of phytohemagglutinin (PHA), 10 ng/ml of Epstein-Bar virus (EBV)-derived peptide with HLA-A24 or -A2 binding motif, and 10 ng/ml of two different peptides under vaccination. After 2 days in culture, the amounts of IFN-γ in cell free supernatants were measured in triplicate assays, and viable cell numbers were also counted. To avoid biases in each assay, all the PBMCs were once cryopreserved and the four different PBMCs (two from healthy donors, one from patients PBMCs harvested 2 weeks before the latest vaccination, and one from the latest vaccination) were thawed at the same time in the morning of the experiment. The PBMCs from healthy donors were from the same donors throughout the series of immunological monitoring. Responses (IFN-γ production) to PHA, EBV-peptide, and the vaccinated peptides were considered to be mediated by resting T cells, memory T cells, and activated T cells, respectively.
Except for the following points, substantially the same approach was employed as Example 1.

[3] = system: peptide-specific CTL precursors in PBMCs; experiment: Peptide-specific CTL precursor assay (IFN-γ production of peptide-stimulated PBMCs), Example 1; format: cell-based, human; parameters: key to Cellular response to peptide during the combination therapy, 12th / Cellular response to peptide during the combination therapy, 6th / Cellular response to peptide during the combination therapy, Pre: Ar: p* ≦ 0.1 and 500 ≦ net**; A: p ≦ 0.05 and 50 ≦ net; B: p ≦ 0.05 and 25 ≦ net < 50; C: 0.05 < p < 0.1 and 50 ≦ net; AAAA: all four wells of quadruplicate assay were positive; AAA: three wells of quadruplicate assay were positive; AA: two wells of quadruplicate assay were positive; settings: PBMCs of the individual case; for Cellular response to peptide during the combination therapy, 12th: after 12th vaccination; for Cellular response to peptide during the combination therapy, 18th: after 18th vaccination; for Cellular response to peptide during the combination therapy, 6th: after 6th vaccination; for Cellular response to peptide during the combination therapy, Pre: before combination therapy, grade of each positive well of quadruplicate IFN-γ assay;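 on all read-outs here: PBMCs cultured with each peptide at 10 µM, restimulated at 20 µM every 3 days up to 12 days, then 18 hr with peptide-pulsed target cells, IFN-γ by ELISA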
Method: Before the first vaccination and 7 days after every 6th vaccination, 30 ml of peripheral blood was obtained, and PBMCs were isolated by means of Ficoll-Conray density gradient centrifugation. Peptide-specific CTL precursors in PBMCs were detected using a previously reported culture method [24]. Briefly, PBMCs (1×10^5 cells/well) were incubated with 10 μM of each peptide in U-bottom-type 96-well microculture plates (Nunc, Roskilde, Denmark) in 200 μl of culture medium. The culture medium contained 45% RPMI-1640 medium, 45% AIM-V™ medium (Invitrogen Corp., Carlsbad, Calif.), 10% FCS, 100 U/ml of interleukin-2 (IL-2) and 0.1 mM MEM nonessential amino acid solution (Invitrogen Corp.). Half of the medium was removed and replaced with the new medium containing a corresponding peptide (20 μM) every 3 days for up to 12 days. […] The target cells (C1R-A2402 or T2, 1×10^4/well) were pulsed with each peptide (10 μM) for 2 hr, and then effector cells (1×10^5/well) were added to each well with the final volume of 200 μl. After incubation for 18 hr, the supernatants (100 μl) were collected, and the amounts of IFN-γ were measured using an enzyme-linked immuno-sorbent assay (ELISA) (limit of sensitivity: 10 pg/ml). All experiments were performed in the four different wells with duplicate assays. […] Peptides were chosen based upon evaluation of all 4 wells by the order shown above.
Peptide-specific CTL precursors in PBMCs were detected using a previously reported culture method [24], while an ELISA was used to detect the serum IgG levels specific for the peptides administrated, as reported previously [13-15]. […] Namely, PBMCs were harvested every 2 weeks and were cultured (10^4 cells/well) for 2 days in triplicate assays with 10 μl M of phytohemagglutinin (PHA), 10 ng/ml of Epstein-Bar virus (EBV)-derived peptide with HLA-A24 or -A2 binding motif, and 10 ng/ml of two different peptides under vaccination. After 2 days in culture, the amounts of IFN-γ in cell free supernatants were measured in triplicate assays, and viable cell numbers were also counted. To avoid biases in each assay, all the PBMCs were once cryopreserved and the four different PBMCs (two from healthy donors, one from patients PBMCs harvested 2 weeks before the latest vaccination, and one from the latest vaccination) were thawed at the same time in the morning of the experiment. The PBMCs from healthy donors were from the same donors throughout the series of immunological monitoring. Responses (IFN-γ production) to PHA, EBV-peptide, and the vaccinated peptides were considered to be mediated by resting T cells, memory T cells, and activated T cells, respectively.

[4] = system: peptide-specific IgG; experiment: ELISA of serum IgG specific for the administered peptides, Example 1; format: in vivo, human; parameters: key: −: absent; +: present, low titer; ++: present, high titer; settings: serum of the individual case; for Anti-peptide IgG during the combination therapy, 6th: after 6th vaccination; for Anti-peptide IgG during the combination therapy, 12th: after 12th vaccination; for Anti-peptide IgG during the combination therapy, 18th: after 18th vaccination; for Anti-peptide IgG during the combination therapy, Pre: before combination therapy

Sequence | Cellular response to peptide, 6th (mean specific IFN-γ production) [1] | Cellular response to peptide, Pre (mean specific IFN-γ production) [1] | Anti-peptide IgG, 6th [2] | Anti-peptide IgG, Pre [2] | Cellular response to peptide during the combination therapy, 12th [3] | Cellular response to peptide during the combination therapy, 18th [3] | Anti-peptide IgG during the combination therapy, 6th [4] | Anti-peptide IgG during the combination therapy, 12th [4] | Anti-peptide IgG during the combination therapy, 18th [4] | Anti-peptide IgG during the combination therapy, Pre [4] | Cellular response to peptide during the combination therapy, 6th [3] | Cellular response to peptide during the combination therapy, Pre [3]
LYCESVHNF [PAP213] | 46.8 pg/ml and 850* pg/ml and 0 pg/ml and 186.8** pg/ml and 36.5 pg/ml and 153.5 pg/ml and 622.3* pg/ml and 9.5 pg/ml and 324.3** pg/ml and 32 pg/ml and 392.3* pg/ml | 0 pg/ml (3×) and 30.8 pg/ml and 5.8 pg/ml and 375 pg/ml and 250 pg/ml and 28.8 pg/ml and 80 pg/ml and 14.3 pg/ml and 33.8 pg/ml | ++ and + (5×) and − (4×) | + (6×) and − (5×) |  |  |  |  |  |  |  | 
RIIYDRKFL [EIF4EBP151-59] |  |  |  |  | A (p ≦ 0.05 and 50 ≦ net) | B (p ≦ 0.05 and 25 ≦ net < 50) | − and ++ | − and ++ | + | − and + |  | 
RLQEWCSVI [UBE2V43-51] |  |  |  |  | ArArArA; also recorded: A (p ≦ 0.05 and 50 ≦ net); also recorded: C (0.05 < p < 0.1 and 50 ≦ net) |  | ++ (3×) and + | ++ |  | ++ and − (2×) and + | ACC and AA | AAA and AAAB and ArA
RLAEYQAYI [SART 3309-317] |  |  |  |  | Ar (p* ≦ 0.1 and 500 ≦ net**) | ArAC | − | − | + | − | Ar (p* ≦ 0.1 and 500 ≦ net**) | A (p ≦ 0.05 and 50 ≦ net)
GLLFLHTRTI [ppMAPkkk294-302] |  |  |  |  | C (0.05 < p < 0.1 and 50 ≦ net) | ArArAA | + and − (2×) and ++ | + and − and ++ | + and − | − (3×) and + | C (0.05 < p < 0.1 and 50 ≦ net) | A (p ≦ 0.05 and 50 ≦ net)
NVLHFFNAPL [HNRPL501-510] |  |  |  |  | ArArAc; also recorded: ArArAr | ArA | ++ and − (2×) and + | ++ (2×) and − | + | − (3×) and + | AAA and ArArArAr | A (p ≦ 0.05 and 50 ≦ net) and ArAr
ALVEFEDVL [HNRPL140-148] |  |  |  |  | ArArArA |  | ++ | + |  | − |  | AAC
SYTRLFLIL [SART 2899-907] |  |  |  |  |  | A (p ≦ 0.05 and 50 ≦ net) | − | − | − | − |  | A (p ≦ 0.05 and 50 ≦ net)
EYCLKFTKL [ART 1170-179] |  |  |  |  | AAA | A (p ≦ 0.05 and 50 ≦ net) | ++ | ++ | ++ | ++ | C (0.05 < p < 0.1 and 50 ≦ net); also recorded: A (p ≦ 0.05 and 50 ≦ net) | A (p ≦ 0.05 and 50 ≦ net)
ILGELREKV [WHSC2141-] |  |  |  |  |  |  | − | − |  | − |  | 
DLLSHAFFAI [ppMAPkkk432-440] |  |  |  |  |  |  | ++ and − (2×) and + | ++ and + (2×) | + | + and − (3×) | C (0.05 < p < 0.1 and 50 ≦ net); also recorded: A (p ≦ 0.05 and 50 ≦ net) | ArA and A (p ≦ 0.05 and 50 ≦ net)
LIADFLSGLI [UBE2V85-93] |  |  |  |  | A (p ≦ 0.05 and 50 ≦ net) |  | − | + | + | − |  | 
KLVERLGAA [lck246-254] |  |  |  |  | B (p ≦ 0.05 and 25 ≦ net < 50) (2×) and ArAA | ArAAA | ++ (4×) and − | ++ (4×) and − | − | ++ (3×) and − (2×) | A (p ≦ 0.05 and 50 ≦ net) | A (p ≦ 0.05 and 50 ≦ net) and ArC
KLKHYGPGWV [CypB129-138] |  |  |  |  |  |  | − | − and + |  | − | A (p ≦ 0.05 and 50 ≦ net) | A (p ≦ 0.05 and 50 ≦ net)
DVWSFGILL [lck422-430] |  |  |  |  | C (0.05 < p < 0.1 and 50 ≦ net) | C (0.05 < p < 0.1 and 50 ≦ net); also recorded: ArAAA | + (2×) and − (4×) | + (2×) and − (3×) | − | − (5×) and + | C (0.05 < p < 0.1 and 50 ≦ net) and A (p ≦ 0.05 and AAA | A (p ≦ 0.05 and 50 ≦ net); also recorded: Ar (p* ≦ 0.1 and 500 ≦ net**); also recorded: C (0.05 < p < 0.1 and 50 ≦ net)
ASLDSDPWV [WHSC2103-111] |  |  |  |  |  |  | − |  |  | − |  | 
TYSVSFDSL [PSM624] | 167 pg/mL | 100 pg/mL | + | + |  |  |  |  |  |  |  | 
TFDYLRSVL [lck486] | 58.5 pg/mL | 375 pg/mL | + | − |  |  |  |  |  |  |  | 
VLEGMEVV [CypB172-179] |  |  |  |  | A (p ≦ 0.05 and 50 ≦ net) | B (p ≦ 0.05 and 25 ≦ net < 50); also recorded: A (p ≦ 0.05 and 50 ≦ net) | + | + | + | − (2×) and + |  | A (p ≦ 0.05 and 50 ≦ net)
HYRKWIKDTI [PSA248] | 100 pg/ml and 505.8 pg/ml and 303.5 pg/ml and 149.8 pg/ml and 0 pg/ml (4×) and 9.3 pg/ml and 21.3 pg/ml and 38.8 pg/ml and 243.5 pg/ml and 9.8 pg/ml | 19.5 pg/ml and 28.3 pg/ml and 12.8 pg/ml and 14.3 pg/ml and 6.5 pg/ml and 18.5 pg/ml and 0 pg/ml (2×) and 375 pg/ml and 17 pg/ml and 250 pg/ml and 18 pg/ml and 32.8 pg/ml and 23.8 pg/ml | + (8×) and ++ (4×) | + (12×) and − (2×) |  |  |  |  |  |  |  | 
DFMIQGGDF [CyB91-99] |  |  |  |  |  |  | − |  |  | − | C (0.05 < p < 0.1 and 50 ≦ net) | 
